Source: US7268128B2, “1,3,5-trisubstituted-5-phenyl and 5-pyridyl pyrazolopyrimidinone derivatives having PDE7 inhibiting action” (Ausbio Pharma Co., Ltd., priority 2001, dated 2007)

Molecular target: T1, PDE7 (type VII phosphodiesterase) (Homo sapiens, UniProt Q13946)
T1 construct: endogenous in cells; host or cells: MOLT-4 (ATCC CRL-1582), soluble fraction, HiTrapQ anion-exchange fraction
Experiment: PDE7 inhibiting activity (3H-cAMP hydrolysis, active fraction from MOLT-4 cells)
Format: biochemical
Settings: PDE7 fraction from MOLT-4 cells, 0.064 μM cAMP, 10 μM rolipram present, 2 hours at 25° C.; read-out: IC50 values for phosphodiesterase inhibiting activities (PDE7)
Procedure, shortened: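 PDE7 from MOLT-4 cell soluble fraction, HiTrapQ NaCl-gradient purified. Compounds reacted 2 h at 25° C in 20 mM tris-HCl pH 7.5, 1 mM MgCl2, 0.1 μCi 3H-cAMP (0.064 μM cAMP), 10 μM rolipram, 5′-nucleotidase; QAE-Sephadex-separated supernatant counted.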

T1 sequence (Q13946 whole entry): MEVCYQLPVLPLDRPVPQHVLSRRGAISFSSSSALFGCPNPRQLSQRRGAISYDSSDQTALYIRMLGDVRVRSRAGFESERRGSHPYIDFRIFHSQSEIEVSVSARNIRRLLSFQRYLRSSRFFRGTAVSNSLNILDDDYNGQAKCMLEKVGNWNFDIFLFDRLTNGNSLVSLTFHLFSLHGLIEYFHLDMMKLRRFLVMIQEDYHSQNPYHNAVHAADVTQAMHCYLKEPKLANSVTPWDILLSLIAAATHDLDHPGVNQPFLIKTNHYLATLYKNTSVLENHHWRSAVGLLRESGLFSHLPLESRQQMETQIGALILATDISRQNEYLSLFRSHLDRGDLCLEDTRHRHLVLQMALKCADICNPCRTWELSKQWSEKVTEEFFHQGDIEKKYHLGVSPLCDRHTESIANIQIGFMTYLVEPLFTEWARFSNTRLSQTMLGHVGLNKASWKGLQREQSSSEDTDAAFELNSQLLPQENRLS

Compound	IC50
CC(=O)Nc1ccc(-c2nc3c(C)nn(C4CCCCC4)c3c(=O)[nH]2)cc1 [Example 4, N-[4-(1-cyclohexyl-3-methyl-7-oxo-6,7-dihydro-1H-pyrazolo[4,3-d]pyrimidin-5-yl)phenyl]acetamide]	≤ 1000 nM
CCOc1ccccc1-c1nc2c(C)nn(C3CCCCC3)c2c(=O)[nH]1 [Example 13, 1-Cyclohexyl-5-(2-ethoxyphenyl)-3-methyl-1,6-dihydro-7H-pyrazolo[4,3-d]pyrimidin-7-one]	≤ 1000 nM
CCOc1cc(N2CCN(C)CC2)ccc1-c1nc2c(c(C3CCCCC3)nn2C)c(=O)[nH]1 [Example 87, 3-Cyclohexyl-6-[2-ethoxy-4-(4-methyl-1-piperazinyl)phenyl]-1-methyl-1,5-dihydro-4H-pyrazolo[3,4-d]pyrimidin-4-one monomethanesulfonate]	≤ 10 nM
CCOc1cc(NCCOC)ccc1-c1nc2c(c(C3CCCCC3)nn2C)c(=O)[nH]1 [Example 117, 3-Cyclohexyl-6-{2-ethoxy-4-[(2-methoxyethyl)amino]phenyl}-1-methyl-1,5-dihydro-4H-pyrazolo[3,4-d]pyrimidin-4-one]	≤ 10 nM
COc1cc(S(=O)(=O)N2CCN(CCO)CC2)ccc1-c1nc2c(C)nn(C3CCCCC3)c2c(=O)[nH]1 [Example 216, 1-Cyclohexyl-5-(4-{[4-(2-hydroxyethyl)-1-piperazinyl]sulfonyl}-2-methoxyphenyl)-3-methyl-1,6-dihydro-7H-pyrazolo[4,3-d]pyrimidin-7-one]	≤ 1000 nM
COc1cc(O[C@@H]2CCOC2)ccc1-c1nc2c(c(C3CCCCC3)nn2C)c(=O)[nH]1 [Example 39, 3-Cyclohexyl-6-{2-methoxy-4-[(3R)-tetrahydro-3-furanyloxy]phenyl}-1-methyl-1,5-dihydro-4H-pyrazolo[3,4-d]pyrimidin-4-one]	≤ 1000 nM
COc1cc(N2CCC(C(=O)O)CC2)ccc1-c1nc2c(c(C3CCCCC3)nn2C)c(=O)[nH]1 [Example 76]	≤ 10 nM
CNC1CCN(c2ccc(-c3nc4c(c(C5CCCCC5)nn4C)c(=O)[nH]3)cc2)CC1 [Example 189, 3-Cyclohexyl-1-methyl-6-{4-[4-(methylamino)-1-piperidinyl]phenyl}-1,5-dihydro-4H-pyrazolo[3,4-d]pyrimidin-4-one monomethanesulfonate]	≤ 1000 nM
COc1cc(C(=O)N2CCOCC2)ccc1-c1nc2c(c(C3CCCCC3)nn2C)c(=O)[nH]1 [Example 68, 3-Cyclohexyl-6-[2-methoxy-4-(4-morpholinylcarbonyl)phenyl]-1-methyl-1,5-dihydro-4H-pyrazolo[3,4-d]pyrimidin-4-one]	≤ 1000 nM
COc1cc(N(C)S(C)(=O)=O)ccc1-c1nc2c(c(C3CCCCC3)nn2C)c(=O)[nH]1 [Example 147, N-[4-(3-cyclohexyl-1-methyl-4-oxo-4,5-dihydro-1H-pyrazolo[3,4-d]pyrimidin-6-yl)-3-methoxyphenyl]-N-methylmethanesulfonamide]	≤ 1000 nM
CCOc1cc(S(=O)(=O)N2CCC(O)CC2)ccc1-c1nc2c(C)nn(C3CCCCC3)c2c(=O)[nH]1 [Example 257, 1-Cyclohexyl-5-{2-ethoxy-4-[(4-hydroxy-1-piperidinyl)sulfonyl]phenyl}-3-methyl-1,6-dihydro-7H-pyrazolo[4,3-d]pyrimidin-7-one]	≤ 1000 nM
COc1cc(O[C@H]2CCOC2)ccc1-c1nc2c(c(C3CCCCC3)nn2C)c(=O)[nH]1 [Example 38, 3-Cyclohexyl-6-{2-methoxy-4-[(3S)-tetrahydro-3-furanyloxy]phenyl}-1-methyl-1,5-dihydro-4H-pyrazolo[3,4-d]pyrimidin-4-one]	≤ 10 nM
COCC(=O)Nc1ccc(-c2nc3c(c(C4CCCCC4)nn3C)c(=O)[nH]2)c(OC)c1 [Example 46, N-[4-(3-cyclohexyl-1-methyl-4-oxo-4,5-dihydro-1H-pyrazolo[3,4-d]pyrimidin-6-yl)-3-methoxyphenyl]-2-methoxyacetamide]	≤ 10 nM
COc1cc(N(C)CCO)ccc1-c1nc2c(C)nn(C3CCCCC3)c2c(=O)[nH]1 [Example 107, 1-Cyclohexyl-5-{4-[(2-hydroxyethyl)(methyl)amino]-2-methoxyphenyl}-3-methyl-1,6-dihydro-7H-pyrazolo[4,3-d]pyrimidin-7-one]	≤ 10 nM
CCNc1ccc(-c2nc3c(C)nn(C4CCCCC4)c3c(=O)[nH]2)c(OC)c1 [Example 275, 1-Cyclohexyl-5-[4-(ethylamino)-2-methoxyphenyl]-3-methyl-1,6-dihydro-7H-pyrazolo[4,3-d]pyrimidin-7-one]	≤ 1000 nM
COc1cc(C(=O)O)ccc1-c1nc2c(c(C3CCCCC3)nn2C)c(=O)[nH]1 [Example 65, 4-(3-Cyclohexyl-1-methyl-4-oxo-4,5-dihydro-1H-pyrazolo[3,4-d]pyrimidin-6-yl)-3-methoxybenzoic acid]	≤ 1000 nM
COc1cc(C2=CCN(C)CC2)ccc1-c1nc2c(C)nn(C3CCCCC3)c2c(=O)[nH]1 [Example 123, 1-Cyclohexyl-5-[2-methoxy-4-(1-methyl-1,2,3,6-tetrahydro-4-pyridinyl)phenyl]-3-methyl-1,6-dihydro-7H-pyrazolo[4,3-d]pyrimidin-7-one]	≤ 1000 nM
COc1cc(C(=O)NCC(=O)O)ccc1-c1nc2c(c(C3CCCCC3)nn2C)c(=O)[nH]1 [Example 72, {[4-(3-Cyclohexyl-1-methyl-4-oxo-4,5-dihydro-1H-pyrazolo[3,4-d]pyrimidin-6-yl)-3-methoxybenzoyl]amino}acetic acid]	≤ 1000 nM
CCn1nc(C2CCCCC2)c2c(=O)[nH]c(-c3ccc(S(=O)(=O)N4CCCN(C)CC4)cc3OC)nc21 [Example 208, 3-Cyclohexyl-1-ethyl-6-{2-methoxy-4-[(4-methyl-1,4-diazepan-1-yl)sulfonyl]phenyl}-1,5-dihydro-4H-pyrazolo[3,4-d]pyrimidin-4-one]	≤ 1000 nM

The remaining lines, values ahead:

IC50	Compound
≤ 10 nM	COc1cc(N2CCCS2(=O)=O)ccc1-c1nc2c(c(C3CCCCC3)nn2C)c(=O)[nH]1 [Example 155, 3-Cyclohexyl-6-[4-(1,1-dioxido-2-isothiazolidinyl)-2-methoxyphenyl]-1-methyl-1,5-dihydro-4H-pyrazolo[3,4-d]pyrimidin-4-one]
≤ 1000 nM	CNCCCN(C)S(=O)(=O)c1ccc(-c2nc3c(C)nn(C4CCCCC4)c3c(=O)[nH]2)c(OC)c1 [Example 215, 4-(1-Cyclohexyl-3-methyl-7-oxo-6,7-dihydro-1H-pyrazolo[4,3-d]pyrimidin-5-yl)-3-methoxy-N-methyl-N-[3-(methylamino)propyl]benzenesulfonamide]
≤ 1000 nM	COc1cc(N2CCC(N(C)C(C)=O)CC2)ccc1-c1nc2c(C)nn(C3CCCCC3)c2c(=O)[nH]1 [Example 119, N-{1-[4-(1-cyclohexyl-3-methyl-7-oxo-6,7-dihydro-1H-pyrazolo[4,3-d]pyrimidin-5-yl)-3-methoxyphenyl]-4-piperidiny}-N-methylacetamide]
≤ 10 nM	COc1cc(NS(C)(=O)=O)ccc1-c1nc2c(c(C3CCCCC3)nn2C)c(=O)[nH]1 [Example 142, N-[4-(3-cyclohexyl-1-methyl-4-oxo-4,5-dihydro-1H-pyrazolo[3,4-d]pyrimidin-6-yl)-3-methoxyphenyl]methanesulfonamide]
≤ 10 nM	COc1cc(NC2CCNCC2)ccc1-c1nc2c(C)nn(C3CCCCC3)c2c(=O)[nH]1 [Example 224, 1-Cyclohexyl-5-[2-methoxy-4-(4-piperidinylamino)phenyl]-3-methyl-1,6-dihydro-7H-pyrazolo[4,3-d]pyrimidin-7-one]
≤ 1000 nM	COc1cc(S(=O)(=O)N2CCSCC2)ccc1-c1nc2c(c(C3CCCCC3)nn2C)c(=O)[nH]1 [Example 165, 3-Cyclohexyl-6-[2-methoxy-4-(4-thiomorpholinylsulfonyl)phenyl]-1-methyl-1,5-dihydro-4H-pyrazolo[3,4-d]pyrimidin-4-one]
≤ 1000 nM	COc1cc(OCCO)ccc1-c1nc2c(c(C3CCCCC3)nn2C)c(=O)[nH]1 [Example 37, 3-Cyclohexyl-6-[4-(2-hydroxyethoxy)-2-methoxyphenyl]-1-methyl-1,5-dihydro-4H-pyrazolo[3,4-d]pyrimidin-4-one]
≤ 10 nM	CNCCCN(C)c1ccc(-c2nc3c(C)nn(C4CCCCC4)c3c(=O)[nH]2)c(OC)c1 [Example 111, 1-Cyclohexyl-5-(2-methoxy-4-{methyl[3-(methylamino)propyl]amino}phenyl)-3-methyl-1,6-dihydro-7H-pyrazolo[4,3-d]pyrimidin-7-one monofumarate]
≤ 1000 nM	COc1cc(S(=O)(=O)N2CCN(C)CC2)ccc1-c1nc2c(C)nn(C3CCCCC3)c2c(=O)[nH]1 [Example 214, 1-Cyclohexyl-5-{2-methoxy-4-[(4-methyl-1-piperazinyl)sulfonyl]phenyl}-3-methyl-1,6-dihydro-7H-pyrazolo[4,3-d]pyrimidin-7-one]
≤ 1000 nM	COc1cc(S(=O)(=O)N2CCNCC2)ccc1-c1nc2c(C)nn(C3CCCCC3)c2c(=O)[nH]1 [Example 217, 1-Cyclohexyl-5-[2-methoxy-4-(1-piperazinylsulfonyl)phenyl]-3-methyl-1,6-dihydro-7H-pyrazolo[4,3-d]pyrimidin-7-one]
≤ 1000 nM	COCCOc1ccc(-c2nc3c(c(C4CCCCC4)nn3C)c(=O)[nH]2)c(OC)c1 [Example 34, 3-Cyclohexyl-6-[2-methoxy-4-(2-methoxyethoxy)phenyl]-1-methyl-1,5-dihydro-4H-pyrazolo[3,4-d]pyrimidin-4-one]
≤ 10 nM	COc1cc(N2CCNCC2)c(F)cc1-c1nc2c(c(C3CCCCC3)nn2C)c(=O)[nH]1 [Example 81, monomethanesulfonate]
≤ 10 nM	COc1cc(S(=O)(=O)N2CCOCC2)ccc1-c1nc2c(c(C3CCCCC3)nn2C)c(=O)[nH]1 [Example 51, 3-Cyclohexyl-6-[2-methoxy-4-(4-morpholinylsulfonyl)phenyl]-1-methyl-1,5-dihydro-4H-pyrazolo[3,4-d]pyrimidin-4-one]
